Experimental data reported in patent US20060121483A1, “Methods for detecting teneurin signalling and related screening methods” (priority 2002, published 2006).
Where a SMILES comes first, the peptide text is derived from it. [ ]: non-standard residue; d: D form. Nle = CCCC[C@H](N)C(=O)O

How the values were obtained:
Format in all cases: cell-based
teneurin-2 C = assay: Teneurin-2 C expression level after co-transfection with Zic; details: HT1080 cells, transient co-transfection of teneurin-2 C and Zic; lactacystin 10 μM
Protocol: (§1) HT1 080 human fibrosarcoma (ATCC CRL-12012) and COS-7 cells (SV40-transformed kidney fibroblasts from the African green monkey, ATCC CRL-1651) were routinely maintained In DMEM medium (Dulbecco's Modified Eagles Medium) supplemented with 10% FCS (fetal calf serum). For transient transfections the cells were seeded in 6-well plates or 4-well staining dishes (Greiner). Twelve hours later they were transfected with the expression vectors containing the constructs (1 μg of each vector) described above and in Example 2 (Zic), Example 4 and Example 5 by using FUGENE-6 (3 μl, 6 μl or 9 μl for one, two to three, or four different plasmids, respectively). The cells were treated with the following substances at least five hours after transfection: ALLN (25 μg/ml; N-acetyl-leu-leu-norleu-AL; Sigma); tunicamycin (2 μg/ml; Sigma) or lactacystin (10 μM; e.g. Sigma) for four or eight hours prior to harvesting. […]
(§2) The gels were transferred to PVDF (polyvinylidene fluoride) membranes. The proteins were detected by anti-GAL4 antibody (BDAD and BDAD-C) or by anti-teneurin-2 serum (BDAD-CTE and BDAD-CTEY), horseradish peroxidase coupled secondary antibodies and ECL SuperSignal® (Pierce).
In this Example, it was determined whether the zinc finger transcription factor Zic, a vertebrate homologue of opa would influence, or be influenced by, the cytoplasmic domain of teneurin-2. […]

BDAD-CTEY = assay: BDAD-teneurin-2 fusion GAL4 luciferase reporter (cleavage) assay; details: addition of protease inhibitors; ALLN 25 μg/ml, lactacystin 10 μM
Protocol: as §1, with “respectively).” for “respectively). The cells were treated with the following substances at least five hours after transfection: ALLN (25 μg/ml; N-acetyl-leu-leu-norleu-AL; Sigma); tunicamycin (2 μg/ml; Sigma) or lactacystin (10 μM; e.g. Sigma) for four or eight hours prior to harvesting.”
The cells were lysed by adding reporter lysis buffer (Promega). Serial dilutions of the lysed cell suspension were then pipetted into Microlite™ luciferase plates (Dynex Technologies) and the luciferase activity was measured in a Microlumat (LB96P, EG+G Berthold) by automatic injection of luciferin substrate solution (2 mM luciferin, 100 mM ATP in 250 mM glycin pH 7.8, 150 mM MgSO4). […] To stop the enzymatic reaction, three times the sample volume of 1 M Na2CO3 was added and the OD was measured at 405 nm in a microplate reader (BioRad). […]

[1] = tested on: transcriptional activity of Zic; assay: Zic / ApoE-luciferase reporter assay in EcR 293 stable transfectants
K3 cells = assay: Proliferation assay, K3 cells; details: 5 day period, crystal violet, ponasterone induces the cytoplasmic domain of teneurin-2
Protocol: (§3) The effect of the expression of the cytoplasmic domain of teneurin-2 on cell proliferation was tested. K3 cells (EcR-293 cells (Invitrogen) containing the stably integrated plasmid pVgRXR (Invitrogen) and the plnd teneurin-2 plasmid encoding the cytoplasmic domain, described in Example 7) were cultured in the presence or absence of ponasterone, which induces expression of the cytoplasmic domain of teneurin-2. Typically, over a 5 day period, parallel cultures were fixed with 4% formaldehyde every day and cell numbers were determined by staining the cells with crystal violet (0.1% in H20). In the presence of ponasterone and thus in the presence of the cytoplasmic domain of teneurin, the K3 cells were retarded in their growth rate to about 50% of the untreated cells. Proliferation of EcR-293 cells without transfected cytoplasmic domain of teneurin-2 was not affected by the addition of ponasterone, proving that the growth retardation was specifically dependent on the presence of the cytoplasmic domain of teneurin-2.

EcR-293 cells = assay: Proliferation assay, EcR-293 cells; details: EcR-293 cells without transfected cytoplasmic domain of teneurin-2
Protocol: as §3

teneurin-2 CTE = assay: Western blot of teneurin-2 CTE and its cleavage products; details: two cleavage products, one the size of the cytoplasmic domain alone
Protocol: as §1, §2

| SMILES | Zic induced downregulation of teneurin-2 C (teneurin-2 C) | induction of luciferase activity following transfection of BDAD-CTEY (BDAD-CTEY) | expression level of the reporter gene (ApoE-luciferase) after induction of teneurin-2 C ([1]; EcR 293 stable transfectants transiently transfected with Zic, ponasterone induces teneurin-2 C) | growth rate relative to untreated cells (K3 cells) | proliferation (EcR-293 cells) | stabilization of teneurin-2 C ([1]; ALLN 25 μg/ml) | inhibitory effect of teneurin-2 C on the transcriptional activity of Zic (ApoE-luciferase reporter) ([1]; EcR 293 cells, teneurin-2 C induced by ponasterone, in the presence of ALLN) | stabilisation of cleavage products of CTE (western blot) (teneurin-2 CTE) |
| --- | --- | --- | --- | --- | --- | --- | --- | --- |
| CC(=O)N[C@@H](CSC(=O)[C@]1([C@@H](O)C(C)C)NC(=O)[C@H](C)[C@@H]1O)C(=O)O [lactacystin] | counteracted | markedly upregulated |  |  |  |  |  |  |
| CC(C)CC[C@@H](O)[C@](C)(O)[C@H]1CC[C@@]2(O)C3=CC(=O)[C@@H]4C[C@@H](O)[C@@H](O)C[C@]4(C)[C@H]3CC[C@]12C [ponasterone] |  |  | marked reduction | about 50% | not affected |  |  |  |
| CCCC[C@@H](C=O)NC(=O)[C@H](CC(C)C)NC(=O)[C@H](CC(C)C)NC(C)=O [ALLN, N-acetyl-leu-leu-norleu-AL] (Ac-Leu-Leu-[Nle]-aldehyde) |  | markedly upregulated |  |  |  | stabilize teneurin-2 C | more pronounced | stabilisation of two particular cleavage products |
